From ChEMBL document CHEMBL4002567, “Rational design and synthesis of 1,5-disubstituted tetrazoles as potent inhibitors of the MDM2-p53 interaction” (Eur J Med Chem, 2017)

Key:
Protein Mdm4 = target: T1, Protein Mdm4 (Homo sapiens, UniProt O15151)
T1 sequence (O15151 whole entry): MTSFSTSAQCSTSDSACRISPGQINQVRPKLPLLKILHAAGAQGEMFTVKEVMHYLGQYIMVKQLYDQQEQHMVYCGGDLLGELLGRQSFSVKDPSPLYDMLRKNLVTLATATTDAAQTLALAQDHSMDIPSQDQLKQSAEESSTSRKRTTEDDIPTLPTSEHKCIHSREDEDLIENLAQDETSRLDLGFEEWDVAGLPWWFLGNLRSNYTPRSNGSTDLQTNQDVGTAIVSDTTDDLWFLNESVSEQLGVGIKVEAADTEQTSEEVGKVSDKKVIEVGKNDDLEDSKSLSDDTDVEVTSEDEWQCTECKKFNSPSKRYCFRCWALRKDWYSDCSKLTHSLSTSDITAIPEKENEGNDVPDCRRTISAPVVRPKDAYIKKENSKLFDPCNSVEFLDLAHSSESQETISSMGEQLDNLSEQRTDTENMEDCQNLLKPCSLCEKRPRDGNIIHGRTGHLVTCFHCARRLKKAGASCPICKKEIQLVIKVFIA

[1] = target: E3 ubiquitin-protein ligase Mdm2 (Homo sapiens, UniProt Q00987)
Sequence of E3 ubiquitin-protein ligase Mdm2 (Q00987 whole entry): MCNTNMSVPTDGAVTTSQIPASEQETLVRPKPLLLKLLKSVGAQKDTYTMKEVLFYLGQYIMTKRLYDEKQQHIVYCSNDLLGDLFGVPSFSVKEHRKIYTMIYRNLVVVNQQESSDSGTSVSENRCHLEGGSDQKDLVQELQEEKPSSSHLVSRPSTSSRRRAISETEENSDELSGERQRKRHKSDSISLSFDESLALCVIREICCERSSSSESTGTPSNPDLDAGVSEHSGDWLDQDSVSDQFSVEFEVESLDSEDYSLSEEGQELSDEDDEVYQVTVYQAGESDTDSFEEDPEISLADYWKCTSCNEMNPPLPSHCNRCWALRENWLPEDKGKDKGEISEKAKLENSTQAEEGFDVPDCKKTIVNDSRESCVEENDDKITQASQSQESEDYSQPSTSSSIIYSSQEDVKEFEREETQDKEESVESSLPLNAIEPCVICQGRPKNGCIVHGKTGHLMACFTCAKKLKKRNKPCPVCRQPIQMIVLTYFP

Ki ([1]; read-out: Ki) | SMILES | Ki (Protein Mdm4) | Ki [1]
– | O=C(O)c1[nH]c2cc(Cl)ccc2c1C(NCC1CCCCC1)c1nnnn1Cc1ccc(OCc2ccccc2Cl)cc1 (configuration not stated) | Not Active | –
– | CCOC(=O)c1[nH]c2cc(Cl)ccc2c1C(NC1CCCC1)c1nnnn1-c1cccc(Oc2ccccc2)c1 (configuration not stated) | Not Active | Not Active
– | O=C(O)c1[nH]c2cc(Cl)ccc2c1C(NC1CCCCC1)c1nnnn1-c1ccc(OCc2ccccc2)cc1 (configuration not stated) | Not Active | –
– | CCOC(=O)c1[nH]c2cc(Cl)ccc2c1C(NCc1ccc(Cl)cc1)c1nnnn1Cc1ccc(Cl)cc1 (configuration not stated) | Not Active | Not Active
– | CCOC(=O)c1[nH]c2cc(Cl)ccc2c1C(NCC1CCCCC1)c1nnnn1Cc1ccc(Cl)cc1 (configuration not stated) | Not Active | Not Active
– | CCCCCNC(c1c(C(=O)O)[nH]c2cc(Cl)ccc12)c1nnnn1-c1ccc(F)c(Cl)c1 (configuration not stated) | Not Active | –
– | O=C(O)c1[nH]c2cc(Cl)ccc2c1C(NC1CCCCCC1)c1nnnn1-c1cccc(OCc2ccccc2)c1 (configuration not stated) | Not Active | –
– | CCCCCNC(c1c(C(=O)OCC)[nH]c2cc(Cl)ccc12)c1nnnn1-c1ccc(OCc2c(Cl)cccc2Cl)cc1 (configuration not stated) | Not Active | Not Active
– | CCOC(=O)c1[nH]c2cc(Cl)ccc2c1C(NCc1ccc(Cl)cc1)c1nnnn1Cc1ccc(OCc2ccccc2Br)cc1 (configuration not stated) | Not Active | Not Active
– | CCOC(=O)c1[nH]c2cc(Cl)ccc2c1C(NCC1CCCCC1)c1nnnn1-c1ccc(OCc2ccccc2Br)cc1 (configuration not stated) | Not Active | Not Active
– | O=C(O)c1[nH]c2cc(Cl)ccc2c1C(NCC1CCCCC1)c1nnnn1Cc1ccc(OCc2ccccc2F)cc1 (configuration not stated) | Not Active | –
– | O=C(O)c1[nH]c2cc(Cl)ccc2c1C(NC1CCCC1)c1nnnn1-c1cccc(OCc2ccccc2)c1 (configuration not stated) | Not Active | –
– | CCCCCNC(c1c(C(=O)OCC)[nH]c2cc(Cl)ccc12)c1nnnn1-c1ccc(C(C)C)cc1 (configuration not stated) | Not Active | Not Active
– | CCOC(=O)c1[nH]c2cc(Cl)ccc2c1C(NC1CCCCC1)c1nnnn1-c1cccc(OCc2ccccc2)c1 (configuration not stated) | Not Active | Not Active
– | O=C(O)c1[nH]c2cc(Cl)ccc2c1C(NCC1CCCCC1)c1nnnn1Cc1ccc(Cl)cc1 (configuration not stated) | Not Active | –
– | O=C(O)c1[nH]c2cc(Cl)ccc2c1C(NCC1CCCCC1)c1nnnn1-c1ccc(OCc2c(Cl)cccc2Cl)cc1 (configuration not stated) | Not Active | –
– | CCOC(=O)c1[nH]c2cc(Cl)ccc2c1C(NC1CCCCCC1)c1nnnn1-c1cccc(Oc2ccccc2)c1 (configuration not stated) | Not Active | Not Active
– | CCCCCNC(c1c(C(=O)O)[nH]c2cc(Cl)ccc12)c1nnnn1Cc1ccc(OCc2ccccc2Cl)cc1 (configuration not stated) | Not Active | –
– | CCCCCNC(c1c(C(=O)OCC)[nH]c2cc(Cl)ccc12)c1nnnn1-c1ccc(OCc2ccccc2Br)cc1 (configuration not stated) | Not Active | Not Active
– | CCOC(=O)c1[nH]c2cc(Cl)ccc2c1C(NC1CCCCC1)c1nnnn1-c1ccc(OCc2ccccc2)cc1 (configuration not stated) | Not Active | Not Active

Ki ([1]; read-out: Ki) | SMILES | Ki (Protein Mdm4) | Ki [1]
– | O=C(O)c1[nH]c2cc(Cl)ccc2c1C(NCC1CCCCC1)c1nnnn1-c1ccc(OCc2ccc(Br)cc2)cc1 (configuration not stated) | Not Active | –
– | CCOC(=O)c1[nH]c2cc(Cl)ccc2c1C(NCC1CCCCC1)c1nnnn1-c1ccc(OCc2ccc(Br)cc2)cc1 (configuration not stated) | Not Active | Not Active
– | O=C(O)c1[nH]c2cc(Cl)ccc2c1C(NC1CCCC1)c1nnnn1-c1cccc(Oc2ccccc2)c1 (configuration not stated) | Not Active | –
– | CCOC(=O)c1[nH]c2cc(Cl)ccc2c1C(NCC1CCCCC1)c1nnnn1-c1ccc(F)c(Cl)c1 (configuration not stated) | Not Active | Not Active
– | CCOC(=O)c1[nH]c2cc(Cl)ccc2c1C(NC1CCCCC1)c1nnnn1-c1cccc(Oc2ccccc2)c1 (configuration not stated) | Not Active | Not Active
– | CCCCCNC(c1c(C(=O)OCC)[nH]c2cc(Cl)ccc12)c1nnnn1-c1ccc(Cl)cc1 (configuration not stated) | Not Active | Not Active
– | O=C(O)c1[nH]c2cc(Cl)ccc2c1C(NC1CCCCC1)c1nnnn1-c1cccc(Oc2ccccc2)c1 (configuration not stated) | Not Active | –
– | CCCCCNC(c1c(C(=O)O)[nH]c2cc(Cl)ccc12)c1nnnn1Cc1ccc(OCc2ccccc2Br)cc1 (configuration not stated) | Not Active | –
– | O=C(O)c1[nH]c2cc(Cl)ccc2c1C(NC1CCCC1)c1nnnn1-c1ccc(OCc2ccccc2)cc1 (configuration not stated) | Not Active | –
– | O=C(O)c1[nH]c2cc(Cl)ccc2c1C(NC1CCC1)c1nnnn1-c1ccc(OCc2ccccc2Br)cc1 (configuration not stated) | Not Active | –
– | CCOC(=O)c1[nH]c2cc(Cl)ccc2c1C(NCC1CCCCC1)c1nnnn1Cc1ccc(OCc2ccccc2Cl)cc1 (configuration not stated) | Not Active | Not Active
– | CCOC(=O)c1[nH]c2cc(Cl)ccc2c1C(NC1CCCCCC1)c1nnnn1-c1ccc(OCc2ccccc2)cc1 (configuration not stated) | Not Active | Not Active
– | CCCCCNC(c1c(C(=O)OCC)[nH]c2cc(Cl)ccc12)c1nnnn1-c1ccc(F)c(Cl)c1 (configuration not stated) | Not Active | Not Active
– | CC(C)c1ccc(-n2nnnc2C(NCC2CCCCC2)c2c(C(=O)O)[nH]c3cc(Cl)ccc23)cc1 (configuration not stated) | Not Active | –
– | CCCCCNC(c1c(C(=O)OCC)[nH]c2cc(Cl)ccc12)c1nnnn1Cc1ccc(Cl)cc1 (configuration not stated) | Not Active | Not Active
– | O=C(O)c1[nH]c2cc(Cl)ccc2c1C(NCC1CCCCC1)c1nnnn1-c1ccc(F)c(Cl)c1 (configuration not stated) | Not Active | –
– | CCOC(=O)c1[nH]c2cc(Cl)ccc2c1C(NCC1CCCCC1)c1nnnn1-c1ccc(OCc2c(Cl)cccc2Cl)cc1 (configuration not stated) | Not Active | Not Active
– | O=C(O)c1[nH]c2cc(Cl)ccc2c1C(NC1CCCCCC1)c1nnnn1-c1ccc(OCc2ccccc2)cc1 (configuration not stated) | Not Active | –
– | O=C(O)c1[nH]c2cc(Cl)ccc2c1C(NC1C2CC3CC(C2)CC1C3)c1nnnn1-c1ccc(OCc2ccccc2Br)cc1 (configuration not stated) | Not Active | –
– | CCOC(=O)c1[nH]c2cc(Cl)ccc2c1C(NC1CCCCCC1)c1nnnn1-c1cccc(OCc2ccccc2)c1 (configuration not stated) | Not Active | Not Active

Ki ([1]; read-out: Ki) | SMILES | Ki (Protein Mdm4) | Ki [1]
– | CCCCCNC(c1c(C(=O)O)[nH]c2cc(Cl)ccc12)c1nnnn1-c1ccc(OCc2ccc(Br)cc2)cc1 (configuration not stated) | Not Active | –
– | O=C(O)c1[nH]c2cc(Cl)ccc2c1C(NCc1ccc(Cl)cc1)c1nnnn1Cc1ccc(Cl)cc1 (configuration not stated) | Not Active | –
– | CCOC(=O)c1[nH]c2cc(Cl)ccc2c1C(NC1CCC1)c1nnnn1-c1ccc(OCc2ccccc2Br)cc1 (configuration not stated) | Not Active | Not Active
– | CCCCCNC(c1c(C(=O)OCC)[nH]c2cc(Cl)ccc12)c1nnnn1Cc1ccc(OCc2ccccc2F)cc1 (configuration not stated) | Not Active | –
– | CCOC(=O)c1[nH]c2cc(Cl)ccc2c1C(NCC1CCCCC1)c1nnnn1Cc1ccc(OCc2ccccc2Br)cc1 (configuration not stated) | Not Active | Not Active
– | CCCCCNC(c1c(C(=O)O)[nH]c2cc(Cl)ccc12)c1nnnn1-c1ccc(OCc2c(Cl)cccc2Cl)cc1 (configuration not stated) | Not Active | –
– | O=C(O)c1[nH]c2cc(Cl)ccc2c1C(NC1CCCCCC1)c1nnnn1-c1cccc(Oc2ccccc2)c1 (configuration not stated) | Not Active | –
– | O=C(O)c1[nH]c2cc(Cl)ccc2c1C(NC1CCCCC1)c1nnnn1-c1cccc(OCc2ccccc2)c1 (configuration not stated) | Not Active | –
– | O=C(O)c1[nH]c2cc(Cl)ccc2c1C(NCc1ccc(Cl)cc1)c1nnnn1Cc1ccc(OCc2ccccc2Br)cc1 (configuration not stated) | Not Active | –
– | CCCCCNC(c1c(C(=O)O)[nH]c2cc(Cl)ccc12)c1nnnn1-c1ccc(OCc2ccccc2Br)cc1 (configuration not stated) | Not Active | –
– | O=C(O)c1[nH]c2cc(Cl)ccc2c1C(NCC1CCCCC1)c1nnnn1Cc1ccc(OCc2ccccc2Br)cc1 (configuration not stated) | Not Active | –
– | CCCCCNC(c1c(C(=O)O)[nH]c2cc(Cl)ccc12)c1nnnn1Cc1ccc(Cl)cc1 (configuration not stated) | Not Active | –
– | CCOC(=O)c1[nH]c2cc(Cl)ccc2c1C(NC1CCCC1)c1nnnn1-c1ccc(OCc2ccccc2)cc1 (configuration not stated) | Not Active | Not Active
117 µM | CCOC(=O)c1[nH]c2cc(Cl)ccc2c1C(NCC1CCCCC1)c1nnnn1-c1ccc(Cl)cc1 (configuration not stated) | – | –
– | CCCCCNC(c1c(C(=O)O)[nH]c2cc(Cl)ccc12)c1nnnn1-c1ccc(C(C)C)cc1 (configuration not stated) | Not Active | –
– | CCCCCNC(c1c(C(=O)OCC)[nH]c2cc(Cl)ccc12)c1nnnn1-c1ccc(OCc2ccc(Br)cc2)cc1 (configuration not stated) | Not Active | Not Active
– | CCCCCNC(c1c(C(=O)OCC)[nH]c2cc(Cl)ccc12)c1nnnn1Cc1ccc(OCc2ccccc2Br)cc1 (configuration not stated) | Not Active | Not Active
– | CCCCCNC(c1c(C(=O)O)[nH]c2cc(Cl)ccc12)c1nnnn1-c1ccc(Cl)cc1 (configuration not stated) | Not Active | –
– | O=C(O)c1[nH]c2cc(Cl)ccc2c1C(NCC1CCCCC1)c1nnnn1-c1ccc(OCc2ccccc2Br)cc1 (configuration not stated) | Not Active | –
– | CCCCCNC(c1c(C(=O)OCC)[nH]c2cc(Cl)ccc12)c1nnnn1Cc1ccc(OCc2ccccc2Cl)cc1 (configuration not stated) | Not Active | Not Active
